Measured values as given in US9867836B2, “Lavage and/or infusion using CSA compounds for increasing fertility in a mammal” (priority 2014, dated 2018).

Tests used:
[1] = system: Alpha hemolytic streptococci; test: Sensitivity panel on organism isolated from mare endometrium; assay type: cell-based; details: isolate from endometrium of 16 year old Quarter Horse mare
Text: (§1) The microscopic findings from the lab were described as mild to moderate diffuse acute superficial […], Grade IIA endometrium. The lab also isolated Escherichia coli and Alpha-hemolytic streptococci. The sensitivity panel yielded the results in Table 1.

Escherichia coli = test: as above; assay type: cell-based; details: isolate from endometrium of 16 year old Quarter Horse mare
Text: as §1

| Compound | Sensitivity Panel, Alpha hemolytic streptococci organism isolated [1] | Sensitivity Panel, Escherichia coli Organism Isolated (Escherichia coli) |
| --- | --- | --- |
| NCC[C@H](O)C(=O)N[C@@H]1C[C@H](N)[C@@H](O[C@H]2O[C@H](CN)[C@@H](O)[C@H](O)[C@H]2O)[C@H](O)[C@H]1O[C@H]1O[C@H](CO)[C@@H](O)[C@H](N)[C@H]1O [Amikacin] | Resistant | Sensitive |
| CC1(C)S[C@@H]2[C@H](NC(=O)[C@H](N)c3ccccc3)C(=O)N2[C@H]1C(=O)O [Ampicillin] | Sensitive | Intermediate |
| Cc1nnc(SCC2=C(C(=O)O)N3C(=O)[C@@H](NC(=O)Cn4cnnn4)[C@H]3SC2)s1 [Cefazolin] | Sensitive | Sensitive |
| CO/N=C(\C(=O)N[C@@H]1C(=O)N2C(C(=O)O)=C(CSC(=O)c3ccco3)CS[C@H]12)c1csc(N)n1 [Ceftiofur] | Sensitive | Sensitive |
| CCN1CCN(c2cc3c(cc2F)c(=O)c(C(=O)O)cn3C2CC2)CC1 [Enrofloxacin] | Sensitive | Sensitive |
| CC[C@H]1OC(=O)[C@H](C)[C@@H](O[C@H]2C[C@@](C)(OC)[C@@H](O)[C@H](C)O2)[C@H](C)[C@@H](O[C@@H]2O[C@H](C)C[C@H](N(C)C)[C@H]2O)[C@](C)(O)C[C@@H](C)C(=O)[C@H](C)[C@@H](O)[C@]1(C)O [Erythromycin] | Sensitive | – |
| CS(=O)(=O)c1ccc([C@@H](O)[C@@H](CF)NC(=O)C(Cl)Cl)cc1 [Florfenicol] | – | Sensitive |
| CO[C@H]1/C=C/O[C@@]2(C)Oc3c(C)c(O)c4c(O)c(c(/C=N/N5CCN(C)CC5)c(O)c4c3C2=O)NC(=O)/C(C)=C\C=C\[C@H](C)[C@H](O)[C@@H](C)[C@@H](O)[C@@H](C)[C@H](OC(C)=O)[C@@H]1C [Rifampin] | Sensitive | – |
| CC1(C)S[C@@H]2[C@H](NC(=O)[C@H](C(=O)O)c3ccsc3)C(=O)N2[C@H]1C(=O)O [Ticarcillin] | Sensitive | Sensitive |
| Gentamicin | Resistant | Sensitive |
| TMP/Sulfa | Sensitive | Resistant |
| Trimmicosin | – | Intermediate |
